Where two headings read alike, the source gives them in different places.
How the values were obtained:
[1] = tested on: SKOV3 (ovarian adenocarcinoma); test: CIMA assay, cell viability, SKOV3; conditions: for Fold change in viability AVG: SKOV
[2] = tested on: SKOV3 (ovarian adenocarcinoma); conditions: human, 72 h
PC3 = test: CIMA assay, cell viability, PC3
[3] = tested on: CCD1079SK (fibroblast, noncancerous but proliferating); test: CIMA assay, cell viability, CCD1079SK; conditions: CCD
[4] = CIMA assay, cell viability, CCD1079SK; conditions: human, Average cell viability, CCD
[5] = tested on: THP-1 (acute monocytic leukemia); test: CIMA assay, cell viability, THP-1
Protocol: Stock solutions of the extracts were prepared in dimethylsulfoxide (DMSO) at 10 mg/mL and stored in 200 μl aliquots at −20° C. until analysis. This preparation ensured that the DMSO delivered to cells in culture never exceeded 1%.
Prepared extracts were assessed following chronic exposure conditions in which cells were seeded at 2×10^3 cells/well (96 well-plate) and incubated with test compounds for 72 h. Each compound was evaluated over a range of concentrations (0, 10, 25, 50 or 100 μg/ml). Cell proliferation was initially assessed using a standard colorimetric indicator of metabolic activity (CIMA) assay. In this assay, tetrazole reduction was evaluated as a measure of metabolic function that evaluates mitochondrial activity to determine the extent of cell proliferation within a culture. This assay is based on the reduction of yellow tetrazolium salt to purple formazan by mitochondrial reductases enzyme in viable cells, resulting in a color changed that confers a change in absorbance.

[6] = 10 ug/mL, listed as 169-14-15-4
[7] = 10 ug/mL, listed as 174-13-14-3
[8] = 50 ug/mL, listed as 169-14-15-4
[9] = 50 ug/mL, listed as 174-13-14-3
[10] = 100 ug/mL, listed as 169-14-15-4
[11] = 100 ug/mL, listed as 174-13-14-3
[12] = THP-1, 1 ug/mL, listed as 174-13-14-3
[13] = THP-1, 10 ug/mL, listed as 174-13-14-3
[14] = THP-1, 50 ug/mL, listed as 174-13-14-3
[15] = THP-1, 100 ug/mL, listed as 174-13-14-3

CC/C=C\C/C=C\C/C=C\C/C=C\C/C=C\CCCC(=O)OCC(COC1OC(CO)C(O)C(O)C1O)OC(=O)CCCCCCCCCCCCCCC (centres unmarked) [Compound 2, MGDG C20:5/C16:0]
viability at 50 µg/mL ([1]; Homo sapiens, SK-OV-3, read-out: Average cell viability, SKOV, 50 ug/mL): 67% | Fold change in viability AVG ([1]; 1 ug/mL, listed as 169-14-15-4): 1.16 | Fold change in viability AVG ([1]; 1 ug/mL, listed as 174-13-14-3): 0.89 | Fold change in viability AVG [1, 6]: 1.02 | Fold change in viability AVG [1, 7]: 0.72 | Fold change in viability AVG [1, 8]: 0.72 | Fold change in viability AVG [1, 9]: 0.67 | Fold change in viability AVG [1, 10]: 0.48 | Fold change in viability AVG [1, 11]: 0.19 | Average cell viability ([2]; 10 ug/mL): 94% | Average cell viability ([2]; 50 ug/mL): 62% | viability at 1 µg/mL (PC3; Homo sapiens, PC-3, read-out: Average cell viability, PC3, 1 ug/mL): 107% | Fold change in viability AVG (PC3; PC3, 1 ug/mL, listed as 169-14-15-4): 1.11 | Fold change in viability AVG (PC3; PC3, 1 ug/mL, listed as 174-13-14-3): 1.00 | Fold change in viability AVG (PC3; PC3, 10 ug/mL, listed as 169-14-15-4): 0.93 | Fold change in viability AVG (PC3; PC3, 10 ug/mL, listed as 174-13-14-3): 0.71 | Fold change in viability AVG (PC3; PC3, 50 ug/mL, listed as 169-14-15-4): 0.51 | Fold change in viability AVG (PC3; PC3, 50 ug/mL, listed as 174-13-14-3): 0.05 | Fold change in viability AVG (PC3; PC3, 100 ug/mL, listed as 169-14-15-4): 0.15 | Fold change in viability AVG (PC3; PC3, 100 ug/mL, listed as 174-13-14-3): 0.05 | PC3 AVG (PC3; PC3, sample at 1 ug/mL, listed as 169-14-15-4): 1.11 | PC3 AVG (PC3; PC3, sample at 1 ug/mL, listed as 174-13-14-3): 1.00 | PC3 AVG (PC3; PC3, sample at 10 ug/mL, listed as 169-14-15-4): 0.93 | PC3 AVG (PC3; PC3, sample at 10 ug/mL, listed as 174-13-14-3): 0.71 | PC3 AVG (PC3; PC3, sample at 50 ug/mL, listed as 169-14-15-4): 0.51 | PC3 AVG (PC3; PC3, sample at 50 ug/mL, listed as 174-13-14-3): 0.05 | PC3 AVG (PC3; PC3, sample at 100 ug/mL, listed as 169-14-15-4): 0.15 | PC3 AVG (PC3; PC3, sample at 100 ug/mL, listed as 174-13-14-3): 0.05 | Fold change in viability AVG ([3]; 1 ug/mL, listed as 169-14-15-4): 1.18 | Average cell viability ([3]; 1 ug/mL, listed as 174-13-14-3): 101% | Fold change in viability AVG ([3]; 1 ug/mL, listed as 174-13-14-3): 1.11 | Fold change in viability AVG [3, 6]: 1.08 | Average cell viability [3, 7]: 89% | Fold change in viability AVG [3, 7]: 0.98 | Fold change in viability AVG [3, 8]: 0.36 | Average cell viability [3, 9]: 20% | Fold change in viability AVG [3, 9]: 0.22 | Fold change in viability AVG [3, 10]: 0.14 | Average cell viability [3, 11]: 14% | Fold change in viability AVG [3, 11]: 0.15 | viability at 72 h, 1 ug/mL ([4]; CCD1079SK fibroblast cells (noncancerous, proliferating), 1 ug/mL): 107% | viability at 72 h, 10 ug/mL ([4]; CCD1079SK fibroblasts (noncancerous, proliferating), 10 ug/mL): 99% | viability at 72 h, 50 ug/mL ([4]; CCD1079SK fibroblasts (noncancerous, proliferating), 50 ug/mL): 32% | viability at 72 h, 100 ug/mL ([4]; CCD1079SK fibroblasts (noncancerous, proliferating), 100 ug/mL): 13% | viability at 1 µg/mL ([5]; Homo sapiens, THP-1, read-out: Average cell viability, THP-1, 1 ug/mL): 102% | viability at 10 µg/mL ([5]; Homo sapiens, THP-1, read-out: Average cell viability, THP-1, 10 ug/mL): 101% | viability at 50 µg/mL ([5]; Homo sapiens, THP-1, read-out: Average cell viability, THP-1, 50 ug/mL): 27% | viability at 100 µg/mL ([5]; Homo sapiens, THP-1, read-out: Average cell viability, THP-1, 100 ug/mL): 17% | Fold change in viability AVG ([5]; THP-1, 1 ug/mL, listed as 169-14-15-4): 1.16 | Average cell viability [5, 12]: 91% | Fold change in viability AVG [5, 12]: 1.03 | Fold change in viability AVG ([5]; THP-1, 10 ug/mL, listed as 169-14-15-4): 1.14 | Average cell viability [5, 13]: 88% | Fold change in viability AVG [5, 13]: 1.00 | Fold change in viability AVG ([5]; THP-1, 50 ug/mL, listed as 169-14-15-4): 0.31 | Average cell viability [5, 14]: 21% | Fold change in viability AVG [5, 14]: 0.24 | Fold change in viability AVG ([5]; THP-1, 100 ug/mL, listed as 169-14-15-4): 0.19 | Average cell viability [5, 15]: 21% | Fold change in viability AVG [5, 15]: 0.23 | THP-1 AVG ([5]; THP-1, sample at 1 ug/mL, listed as 169-14-15-4): 1.16 | THP-1 AVG ([5]; THP-1, sample at 1 ug/mL, listed as 174-13-14-3): 1.03 | THP-1 AVG ([5]; THP-1, sample at 10 ug/mL, listed as 169-14-15-4): 1.14 | THP-1 AVG ([5]; THP-1, sample at 10 ug/mL, listed as 174-13-14-3): 1.00 | THP-1 AVG ([5]; THP-1, sample at 50 ug/mL, listed as 169-14-15-4): 0.31 | THP-1 AVG ([5]; THP-1, sample at 50 ug/mL, listed as 174-13-14-3): 0.24 | THP-1 AVG ([5]; THP-1, sample at 100 ug/mL, listed as 169-14-15-4): 0.19 | THP-1 AVG ([5]; THP-1, sample at 100 ug/mL, listed as 174-13-14-3): 0.23
